{"source": "patent US20220000893A1", "about": "“METHOD FOR TREATING T-HELPER TYPE 2 MEDIATED DISEASE” (|NSERM (INSTITUT NATIONAL DE LA SANTÉ ET DE LA RECHERCHE …, priority 2018, published 2022)", "system": "differentiating wild-type Th2 cells", "experiment": "Th2 cell differentiation and commitment in Th2-polarizing culture with non-specific SETDB1 inhibitors; cytokine production by intracellular staining and flow cytometry", "conditions": "naïve CD4 T cells, 6 days in Th2-polarizing conditions; 100 nM Mithramycine A for first 4 hours, 1 nM DZNep for first 24 hours; no pro-Th1 signal; vs DMSO; PMA/Ionomycine restimulation", "protocol": "At the end of the culture, cytokine production was assessed by flow cytometry following T cell restimulation with PMA/Ionomycine in the presence of Monensin and intracellular staining.\nSpleen and lymph nodes (mesenteric, inguinal, axillary, brachial and cervical) were collected and digested with Liberase TM and DNAse I (Sigma). Single-cell suspensions were then pooled and depleted of erythrocytes by osmotic shock (Red Blood Cell Lysis buffer, Sigma). […] Naïve CD4 T cells, defined as CD4+CD25-CD62LhighCD44low, were labeled with fluorochrome-conjugated monoclonal antibodies specific for CD4 (GK1.5, BD Biosciences), CD25 (PC61, BD Biosciences), CD62L (MEL14, Thermo Fischer Scientific) and CD44 (IM7, BD Biosciences), and purified from the enriched fraction of CD4 T cells by fluorescence-activated cell sorting (FACS Aria, BD Biosciences). […]\nFor intracellular cytokine staining, cells were first stimulated at 37° C. with 20 ng/mL phorbol 12-myristate 13-acetate (Millipore) and 1 μg/mL ionomycin (Millipore) for 5 hours in the presence of GolgiStop™ (BD Biosciences). […] Flow cytometry was performed by using a LSRII Fortessa cytometer (BD Biosciences) or MACSQuant analyzer 10 (Myltenyi) and the data were analyzed by using FlowJo software (Tree Star). […]"}
{"compound": "Nc1nccc2c1ncn2[C@@H]1C=C(CO)[C@@H](O)[C@H]1O", "note": "[DZNEP, 3-Deazaneplanocin A]", "values": [{"measurement": "IFN-γ production by Th2 cells (frequency of IFNg-producing cells)", "result": "start to produce pro-Th1 factor, in particular IFN-γ"}]}
